Experimental data as given in PubChem BioAssay AID248 (DTP/NCI, 2004).
Where “and” joins values, the source holds several entries; their conditions need not be identical. Equal values may be shown once. Toxic doses and inconclusive results are not listed. Cut-off read from the data, not from the text of the source: active = T/C of 150% or more; inactive = T/C below 125%.

Test system: L1210 leukemia ip in BDF1 mice, survival T/C
Assay: NCI In Vivo Anticancer Drug Screen. Data for tumor model L1210 Leukemia (intraperitoneal) in B6D2F1 (BDF1) mice
Conditions: endpoint: mean survival time, higher = longer survival
Summary of the method: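 Read-out is survival time, reported as the treated-group measurement over the vehicle-control measurement.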

[1] = dose: 16.5 mg/kg/injection, schedule: Q01DX009 (ip), vehicle: saline
[2] = dose: 25.0 mg/kg/injection, schedule: Q01DX009 (ip), vehicle: saline
[3] = dose: 25.0 mg/kg/injection, schedule: Q04DX003 (ip), vehicle: saline
[4] = dose: 50.0 mg/kg/injection, schedule: Q01DX009 (ip), vehicle: saline
[5] = dose: 50.0 mg/kg/injection, schedule: Q04DX003 (ip), vehicle: saline
[6] = dose: 100.0 mg/kg/injection, schedule: Q04DX003 (ip), vehicle: saline
[7] = dose: 100.0 mg/kg/injection, schedule: Q01DX009 (ip), vehicle: saline
[8] = dose: 200.0 mg/kg/injection, schedule: Q01DX009 (ip), vehicle: saline
[9] = dose: 200.0 mg/kg/injection, schedule: Q04DX003 (ip), vehicle: saline
[10] = dose: 400.0 mg/kg/injection, schedule: Q04DX003 (ip), vehicle: saline
[11] = dose: 100.0 mg/kg/injection, schedule: Q01DX009 (ip), vehicle: Klucel (hydroxypropylcellulose) (HPC)
[12] = dose: 200.0 mg/kg/injection, schedule: Q01DX009 (ip), vehicle: Klucel (hydroxypropylcellulose) (HPC)
[13] = dose: 400.0 mg/kg/injection, schedule: Q01DX009 (ip), vehicle: Klucel (hydroxypropylcellulose) (HPC)
[14] = dose: 100.0 mg/kg/injection, schedule: Q01DX009 (ip), vehicle: saline with Tween-80
[15] = dose: 100.0 mg/kg/injection, schedule: Q04DX003 (ip), vehicle: Klucel (hydroxypropylcellulose) (HPC)
[16] = dose: 200.0 mg/kg/injection, schedule: Q04DX003 (ip), vehicle: Klucel (hydroxypropylcellulose) (HPC)
[17] = dose: 400.0 mg/kg/injection, schedule: Q04DX003 (ip), vehicle: Klucel (hydroxypropylcellulose) (HPC)
[18] = dose: 400.0 mg/kg/injection, schedule: Q01DX009 (ip), vehicle: other

Measured: T/C

Nc1nc(Nc2ccc(C3=NCCN3)cc2)nc(Nc2ccc(C3=NCCN3)cc2)n1
inactive: dose: 1.2 mg/kg/injection, schedule: Q01DX Z (ip), vehicle: methylcellulose (MC) 112 % of control | dose: 1.9 mg/kg/injection, schedule: Q01DX Z (ip), vehicle: methylcellulose (MC) 123 % of control | dose: 3.75 mg/kg/injection, schedule: Q01DX Z (ip), vehicle: methylcellulose (MC) 117 % of control | dose: 15.0 mg/kg/injection, schedule: Q01DX Z (ip), vehicle: methylcellulose (MC) 120 % of control | [1] 108 % of control | [2] 120 % of control and 122 % of control | [3] 112 % of control | dose: 37.5 mg/kg/injection, schedule: Q01DX009 (ip), vehicle: saline 114 % of control and 115 % of control | [4] 123 % of control | [5] 109 % of control | dose: 60.0 mg/kg/injection, schedule: Q01DX Z (oral), vehicle: carboxymethylcellulose (CMC) 100 % of control | dose: 100.0 mg/kg/injection, schedule: Q01DX001 (ip), vehicle: saline 117 % of control | [6] 91 % of control | dose: 120.0 mg/kg/injection, schedule: Q01DX Z (oral), vehicle: carboxymethylcellulose (CMC) 95 % of control

CCc1c[n+]([O-])c(C)cc1[N+](=O)[O-]
inactive: [7] 108 % of control | [6] 101 % of control | [8] 101 % of control | [9] 122 % of control | [10] 95 % of control

Cc1ccc(C)c(NC(=O)Nc2ncccn2)c1
inactive: [11] 102 % of control | [12] 92 % of control | [13] 97 % of control

CCOC(=O)/C(C#N)=C\c1cc(OC)ccc1OC
inactive: [14] 101 % of control | dose: 100.0 mg/kg/injection, schedule: Q04DX003 (ip), vehicle: saline with Tween-80 96 % of control | dose: 200.0 mg/kg/injection, schedule: Q04DX003 (ip), vehicle: saline with Tween-80 94 % of control | dose: 400.0 mg/kg/injection, schedule: Q04DX003 (ip), vehicle: saline with Tween-80 93 % of control

COc1ccc(Cc2c3cc(OC)c(OC)cc3cc[n+]2Cc2ccc(N(CCCl)CCCl)cc2)cc1OC
inactive: dose: 75.0 mg/kg/injection, schedule: Q01DX001 (ip), vehicle: carboxymethylcellulose (CMC) 100 % of control | dose: 150.0 mg/kg/injection, schedule: Q01DX001 (ip), vehicle: carboxymethylcellulose (CMC) 94 % of control

CN=C(N)Nc1ccc(C(=O)Oc2ccc([N+](=O)[O-])cc2)cc1
inactive: dose: 25.0 mg/kg/injection, schedule: Q01DX009 (ip), vehicle: water 112 % of control | dose: 50.0 mg/kg/injection, schedule: Q01DX009 (ip), vehicle: water 102 % of control

CCCCCC(=O)c1ccc(O)cc1O
inactive: dose: 12.5 mg/kg/injection, schedule: Q01DX009 (ip), vehicle: gum acacia 104 % of control | dose: 25.0 mg/kg/injection, schedule: Q01DX009 (ip), vehicle: gum acacia 109 % of control | dose: 50.0 mg/kg/injection, schedule: Q01DX009 (ip), vehicle: gum acacia 93 % of control and 95 % of control | dose: 100.0 mg/kg/injection, schedule: Q04DX003 (ip), vehicle: gum acacia 95 % of control | dose: 200.0 mg/kg/injection, schedule: Q04DX003 (ip), vehicle: gum acacia 94 % of control

CCN(CC)C(=O)C1C=C2c3cccc4c3c(c(Br)n4C)CC2N(C)C1 (stereo unspecified)
inactive: dose: 12.5 mg/kg/injection, schedule: Q01DX009 (ip), vehicle: saline 102 % of control | [2] 120 % of control | [3] 103 % of control | [4] 112 % of control | [5] 98 % of control | [7] 107 % of control | [6] 104 % of control | [9] 106 % of control

NC(=O)NC(=O)NC1CCCCC1
inactive: [15] 102 % of control | [16] 102 % of control | [17] 100 % of control

Cc1ccc(CNC(=O)NCCCCCCNC(=O)NCc2ccc(C)cc2)cc1
inactive: dose: 100.0 mg/kg/injection, schedule: Q01DX009 (ip), vehicle: other 95 % of control | dose: 200.0 mg/kg/injection, schedule: Q01DX009 (ip), vehicle: other 100 % of control | [18] 100 % of control

CNC(=O)CCN1CCN(CC/C=C2\c3ccccc3Sc3ccc(Cl)cc32)CC1
inactive: dose: 1.56 mg/kg/injection, schedule: Q03HX024 (ip), vehicle: saline 95 % of control | dose: 2.05 mg/kg/injection, schedule: Q01DX009 (ip), vehicle: saline 90 % of control | dose: 3.12 mg/kg/injection, schedule: Q03HX024 (ip), vehicle: saline 100 % of control | dose: 4.1 mg/kg/injection, schedule: Q01DX009 (ip), vehicle: saline 94 % of control | dose: 8.2 mg/kg/injection, schedule: Q01DX009 (ip), vehicle: saline 111 % of control | [1] 111 % of control | dose: 18.75 mg/kg/injection, schedule: Q01DX001 (ip), vehicle: saline 106 % of control | [3] 122 % of control | dose: 37.5 mg/kg/injection, schedule: Q01DX001 (ip), vehicle: saline 108 % of control | dose: 75.0 mg/kg/injection, schedule: Q01DX001 (ip), vehicle: saline 106 % of control | [6] 114 % of control | dose: 150.0 mg/kg/injection, schedule: Q01DX001 (ip), vehicle: saline 106 % of control

c1ccc2cnccc2c1
inactive: [7] 100 % of control | [8] 110 % of control

CC(NC(=O)Oc1cccc(NC(=O)N(C)C)c1)C(C)(C)C (stereo unspecified)
inactive: [14] 109 % of control | dose: 200.0 mg/kg/injection, schedule: Q01DX009 (ip), vehicle: saline with Tween-80 96 % of control | dose: 400.0 mg/kg/injection, schedule: Q01DX009 (ip), vehicle: saline with Tween-80 98 % of control

CCOC(=O)c1ccc(C(=O)OCC)c(Cl)n1
inactive: [11] 97 % of control | [15] 105 % of control | [12] 95 % of control | [16] 97 % of control | [13] 97 % of control | [17] 102 % of control

COC(=N)c1ccc2c(c1)OCO2
inactive: [6] 94 % of control | [9] 94 % of control | [10] 100 % of control

COC1OC2COC(c3ccccc3)OC(OC)(C2)C1NC(C)=O (stereo unspecified)
inactive: dose: 100.0 mg/kg/injection, schedule: Q01DX001 (ip), vehicle: Klucel (hydroxypropylcellulose) (HPC) 102 % of control | dose: 200.0 mg/kg/injection, schedule: Q01DX001 (ip), vehicle: Klucel (hydroxypropylcellulose) (HPC) 101 % of control | dose: 400.0 mg/kg/injection, schedule: Q01DX001 (ip), vehicle: Klucel (hydroxypropylcellulose) (HPC) 98 % of control

CC(=O)NC1C(OCc2ccccc2)OC(CO)C(O)C1OCc1ccccc1 (stereo unspecified)
inactive: dose: 100.0 mg/kg/injection, schedule: Q01DX001 (ip), vehicle: saline with Tween-80 100 % of control | dose: 200.0 mg/kg/injection, schedule: Q01DX001 (ip), vehicle: saline with Tween-80 107 % of control | dose: 400.0 mg/kg/injection, schedule: Q01DX001 (ip), vehicle: saline with Tween-80 96 % of control

CC(=O)OCC1OC(N2C(=O)/C(=C/c3cccnc3)SC2=S)C(OC(C)=O)C(OC(C)=O)C1OC(C)=O (stereo unspecified)
inactive: dose: 25.0 mg/kg/injection, schedule: Q01DX005 (ip), vehicle: other 94 % of control | dose: 50.0 mg/kg/injection, schedule: Q01DX005 (ip), vehicle: other 96 % of control | dose: 100.0 mg/kg/injection, schedule: Q01DX005 (ip), vehicle: other 96 % of control | dose: 200.0 mg/kg/injection, schedule: Q01DX005 (ip), vehicle: other 105 % of control

CCN=C(NC(=S)Nc1ccc(Cl)cc1)SCC
inactive: dose: 100.0 mg/kg/injection, schedule: Q04DX002 (ip), vehicle: saline with Tween-80 98 % of control | dose: 200.0 mg/kg/injection, schedule: Q04DX002 (ip), vehicle: saline with Tween-80 98 % of control | dose: 400.0 mg/kg/injection, schedule: Q04DX002 (ip), vehicle: saline with Tween-80 95 % of control

O=c1[nH]cnc2n[nH]nc12
inactive: dose: 176.0 mg/kg/injection, schedule: Q01DX009 (ip), vehicle: other 113 % of control | dose: 264.0 mg/kg/injection, schedule: Q01DX009 (ip), vehicle: other 117 % of control | [18] 124 % of control
